The species entered for assay [1] is Bos taurus. Put plainly: Inhibition of calf thymus DNA topoisomerase 1 assessed as minimum efficient dose.
The species entered for assay [2] is Bos taurus. Put plainly: Inhibition of calf thymus tubulin assembly.
For assay [3], the system named is P388. Briefly: Cytotoxicity against mouse P388 cells. It counts as functional, cell-based.
In a further assay the test system is KB. Briefly: Cytotoxicity against human KB cells. Type of assay: functional, cell-based.
The test system of assay [4] is P388. Put plainly: Cytotoxicity against mouse P388 cells at 100 ug/mL. It counts as functional, cell-based.
Assay [5] concerns the target DNA topoisomerase 2-alpha (Homo sapiens) (UniProt P11388). Put plainly: Inhibition of DNA topoisomerase 2.
Assay [6] addresses T1, DNA topoisomerase 1 (Homo sapiens) (UniProt P11387).
T1 sequence (whole entry): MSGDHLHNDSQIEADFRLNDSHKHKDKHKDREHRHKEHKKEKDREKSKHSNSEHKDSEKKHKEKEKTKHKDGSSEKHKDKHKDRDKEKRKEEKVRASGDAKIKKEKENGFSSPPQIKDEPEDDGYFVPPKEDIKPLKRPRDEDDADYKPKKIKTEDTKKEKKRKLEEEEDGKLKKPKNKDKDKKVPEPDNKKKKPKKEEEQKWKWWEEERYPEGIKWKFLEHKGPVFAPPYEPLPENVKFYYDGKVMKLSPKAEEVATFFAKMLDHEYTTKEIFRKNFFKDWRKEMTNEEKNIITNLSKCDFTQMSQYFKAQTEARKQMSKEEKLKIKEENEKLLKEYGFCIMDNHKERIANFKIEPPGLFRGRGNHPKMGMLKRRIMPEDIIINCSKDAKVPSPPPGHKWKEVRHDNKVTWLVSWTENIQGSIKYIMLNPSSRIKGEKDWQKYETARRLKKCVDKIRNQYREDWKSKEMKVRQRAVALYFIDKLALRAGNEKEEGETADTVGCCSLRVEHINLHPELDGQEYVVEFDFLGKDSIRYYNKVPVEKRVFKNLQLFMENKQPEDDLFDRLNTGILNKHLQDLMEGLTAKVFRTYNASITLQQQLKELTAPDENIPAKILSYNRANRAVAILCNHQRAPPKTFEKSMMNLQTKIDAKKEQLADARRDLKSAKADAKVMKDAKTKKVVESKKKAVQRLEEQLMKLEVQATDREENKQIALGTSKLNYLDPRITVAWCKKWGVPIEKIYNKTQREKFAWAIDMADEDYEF
Put plainly: Inhibition of DNA topoisomerase 1.

Converted amounts (≈) assume the structure as drawn. The source made the active and inactive calls. No cut-off for these calls is given here.

Usually IC50 stands for the concentration needed to halve the response being measured. Higher therefore signals weaker potency.

Sequence of DNA topoisomerase 2-alpha (Homo sapiens) (P11388 whole entry): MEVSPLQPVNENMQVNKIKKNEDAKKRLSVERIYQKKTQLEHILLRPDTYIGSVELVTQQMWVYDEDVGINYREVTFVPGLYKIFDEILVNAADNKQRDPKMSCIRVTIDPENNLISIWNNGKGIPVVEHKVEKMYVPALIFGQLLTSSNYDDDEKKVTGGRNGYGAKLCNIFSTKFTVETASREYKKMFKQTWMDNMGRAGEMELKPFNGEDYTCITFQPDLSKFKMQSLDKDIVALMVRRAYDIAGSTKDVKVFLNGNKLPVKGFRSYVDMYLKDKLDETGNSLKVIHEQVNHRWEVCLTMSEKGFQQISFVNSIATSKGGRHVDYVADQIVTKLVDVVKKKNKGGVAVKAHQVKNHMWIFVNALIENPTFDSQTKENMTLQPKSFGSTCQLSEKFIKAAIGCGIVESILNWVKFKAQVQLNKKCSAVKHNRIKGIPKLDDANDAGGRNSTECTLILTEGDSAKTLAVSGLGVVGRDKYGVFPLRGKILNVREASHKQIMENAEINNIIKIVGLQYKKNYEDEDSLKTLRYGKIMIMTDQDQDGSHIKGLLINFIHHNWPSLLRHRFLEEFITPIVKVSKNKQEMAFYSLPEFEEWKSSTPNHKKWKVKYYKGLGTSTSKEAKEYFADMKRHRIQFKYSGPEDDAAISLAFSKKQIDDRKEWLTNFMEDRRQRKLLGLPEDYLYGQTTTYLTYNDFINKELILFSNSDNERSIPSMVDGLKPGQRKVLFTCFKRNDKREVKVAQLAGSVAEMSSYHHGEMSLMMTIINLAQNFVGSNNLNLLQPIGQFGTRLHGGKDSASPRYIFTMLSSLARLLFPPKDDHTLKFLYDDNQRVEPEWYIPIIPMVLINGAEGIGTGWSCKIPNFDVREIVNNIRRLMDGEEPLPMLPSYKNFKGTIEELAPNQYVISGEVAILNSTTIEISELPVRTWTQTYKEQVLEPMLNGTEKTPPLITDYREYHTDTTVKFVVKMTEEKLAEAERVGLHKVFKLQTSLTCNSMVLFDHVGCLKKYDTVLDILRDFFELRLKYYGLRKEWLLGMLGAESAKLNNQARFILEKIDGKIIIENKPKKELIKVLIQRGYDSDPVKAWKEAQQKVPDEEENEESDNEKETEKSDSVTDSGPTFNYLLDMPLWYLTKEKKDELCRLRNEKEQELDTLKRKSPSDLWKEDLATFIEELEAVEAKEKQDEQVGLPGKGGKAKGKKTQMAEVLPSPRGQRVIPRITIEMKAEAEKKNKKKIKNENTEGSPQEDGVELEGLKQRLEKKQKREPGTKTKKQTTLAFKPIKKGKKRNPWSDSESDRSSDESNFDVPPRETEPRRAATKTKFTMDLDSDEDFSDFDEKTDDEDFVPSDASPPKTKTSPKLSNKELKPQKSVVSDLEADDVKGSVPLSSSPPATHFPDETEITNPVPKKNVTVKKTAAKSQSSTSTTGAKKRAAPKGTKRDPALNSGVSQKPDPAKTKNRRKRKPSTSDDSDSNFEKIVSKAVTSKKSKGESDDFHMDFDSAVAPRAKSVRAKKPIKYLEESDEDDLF

`COc1cc(O)c2c(=O)cc(-c3ccc(O)c(OC)c3)oc2c1` [VELUTIN]: the MED in the assay filed under Bos taurus [1] turned out to be 0.1 µg/mL. Also, the result in the assay listed under Bos taurus [2] was inactive. Also, in the assay on P388 [3], the IC50 was 10 µg/mL (≈ 31.8 µM).
In the assay on KB, `COc1ccc(-c2oc3cc(O)c(OC)c(O)c3c(=O)c2OC)cc1O` [CENTAUREIDIN] had an IC50 of 0.04 µg/mL (≈ 0.111 µM).
As for `COc1cc(O)c2c(=O)cc(-c3cc(OC)c(OC)c(OC)c3)oc2c1` [CORYMBOSIN], the outcome in the assay with P388 [4] was inactive. In the assay with KB, this molecule returned an IC50 of 19.4 µg/mL (≈ 54.1 µM).
Consider `COc1cc(O)c2c(=O)cc(-c3cc(OC)c(O)c(OC)c3)oc2c1`, for which, in the assay filed under Bos taurus [1], the MED came out at 1 µg/mL. Besides, the outcome in the assay listed under Bos taurus [2] and in the assay with P388 [4] was inactive. In the assay with KB, this molecule registered an IC50 of 7.7 µg/mL (≈ 22.4 µM).
As for `COc1cc(O)c2c(=O)cc(-c3ccc(O)cc3)oc2c1` [GENKWANIN], the MED in the assay listed under Bos taurus [1] was over 10 µg/mL. For the same molecule, the IC50 in the assay on P388 [3] was 10 µg/mL (≈ 35.2 µM); in the assay with KB, 8.7 µg/mL (≈ 30.6 µM).
For the molecule `COc1cc(O)c2c(=O)cc(-c3ccc(OC)c(OC)c3)oc2c1`, the outcome with P388 [4] was inactive. The IC50 in the assay with KB is 19.4 µg/mL (≈ 59.1 µM).
Turning to `COc1cc(O)c2c(=O)cc(-c3cc(O)c(OC)c(OC)c3)oc2c1` [LETHEDOCIN], the outcome with P388 [4] was inactive. Besides, the midpoint of inhibition in the assay with KB, the IC50, lay at 16.4 µg/mL (≈ 47.6 µM).
For the molecule `CC[C@@]1(O)C(=O)OCc2c1cc1n(c2=O)Cc2cc3ccccc3nc2-1` [CAMPTOTHECIN], in the assay filed under Bos taurus [1], the MED came out at 0.03 µg/mL. In the assay with KB, this molecule gave an IC50 of 0.01 µg/mL (≈ 0.0287 µM).
Regarding `O=c1c(O)c(-c2ccc(O)c(O)c2)oc2cc(O)cc(O)c12`, the outcome in assay [5] and in assay [6] was Active.
With `COc1cccc2c1C(=O)c1c(O)c3c(c(O)c1C2=O)C[C@@](O)(C(=O)CO)C[C@@H]3O[C@H]1C[C@H](N)[C@H](O)[C@H](C)O1` [DOXORUBICIN], the IC50 in the assay with P388 [3] was found to be 0.005 µg/mL (≈ 0.0092 µM); in the assay with KB, 1.5 µg/mL (≈ 2.76 µM).
`O=c1c(O)c(-c2ccc(O)c(O)c2)oc2cc(O)ccc12`: the result in assay [5] and in assay [6] was Active.
For the molecule `O=c1c(O)c(-c2cc(O)c(O)c(O)c2)oc2cc(O)cc(O)c12`, the outcome in assay [5] and in assay [6] was Active.

(Values after ChEMBL document CHEMBL1158264, “DNA topoisomerase I inhibitors: cytotoxic flavones from Lethedon tannaensis” (J Nat Prod, 1996).)
